Values quoted from earlier work in patent US11707464B2, “Methods of treating heavy menstrual bleeding” (AbbVie Inc., priority 2013, dated 2023).

Test system: women with symptomatic uterine fibroids
Settings: 185 women with HMB associated with uterine fibroids; through 6 months; cited from earlier work

CCNC(=O)[C@@H]1CCCN1C(=O)[C@H](CCCN=C(N)N)NC(=O)[C@H](CC(C)C)NC(=O)[C@@H](Cc1c[nH]c2ccccc12)NC(=O)[C@H](Cc1ccc(O)cc1)NC(=O)[C@H](CO)NC(=O)[C@H](Cc1c[nH]c2ccccc12)NC(=O)[C@H](Cc1cnc[nH]1)NC(=O)[C@@H]1CCC(=O)N1 [deslorelin]
efficacy (reduction in uterine bleeding and volume) when dosed with low-dose transdermal E2: maintained
